Source: ChEMBL document CHEMBL1146245, “Antitumor agents. 258. Syntheses and evaluation of dietary antioxidant--taxoid conjugates as novel cytotoxic agents” (2007)
≈ marks a conversion by molar mass, not a printed value. Calls of active or inactive are those of the source. The rule behind the calls is not given here.

Columns and labels:
Format in all cases: functional
[1] = tested on: KB; assay: Cytotoxicity against human KB cells by sulforhodamine B assay; conditions: for EC50: read-out: ED50 (the source's name)
[2] = tested on: 1A9; assay: Cytotoxicity against human 1A9 cells by sulforhodamine B assay; conditions: for EC50: read-out: ED50 (the source's name)
[3] = tested on: HCT-8; assay: Cytotoxicity against human HCT8 cells
[4] = Cytotoxicity against MDR human KB-VIN cells expressing P-glycoprotein; conditions: for EC50: KBVIN, read-out: ED50 (the source's name)
[5] = tested on: A549; assay: Cytotoxicity against human A549 cells; conditions: for EC50: read-out: ED50 (the source's name)
[6] = tested on: A-431; assay: Cytotoxicity against human A431 cells; conditions: for EC50: read-out: ED50 (the source's name)

## CC(=O)O[C@H]1C(=O)[C@]2(C)[C@@H](OC(=O)CN(C)C)C[C@H]3OC[C@@]3(OC(C)=O)[C@H]2[C@H](OCc2ccccc2)[C@]2(O)C[C@H](OC(=O)[C@H](OC(=O)CCC(=O)Oc3c(C)c(C)c4c(c3C)OC(C)(CCC[C@@H](C)CCC[C@@H](C)CCCC(C)C)CC4)[C@@H](NCc3ccccc3)c3ccccc3)C(C)=C1C2(C)C (stereo partly drawn) [listing 1 of 2 here]
[1]
  Activity: inactive
[2]
  Activity: inactive
[3]
  Activity: inactive
[4]
  Activity: inactive
[5]
  Activity: inactive

## COc1cc(/C=C/C(=O)CC(=O)/C=C/c2ccc(OC(=O)CCC(=O)O[C@@H](C(=O)O[C@H]3C[C@@]4(O)[C@@H](OCc5ccccc5)[C@@H]5[C@]6(OC(C)=O)CO[C@@H]6C[C@H](O)[C@@]5(C)C(=O)[C@H](OC(C)=O)C(=C3C)C4(C)C)[C@@H](NCc3ccccc3)c3ccccc3)c(OC)c2)ccc1O
[1]
  EC50: 0.01 µg/mL (≈ 0.00783 µM)
[2]
  EC50: 0.03 µg/mL (≈ 0.0235 µM)
[6]
  EC50: 0.03 µg/mL (≈ 0.0235 µM)
[3]
  Activity: inactive
[4]
  EC50: 0.2 µg/mL (≈ 0.157 µM)
[5]
  EC50: 0.03 µg/mL (≈ 0.0235 µM)

## CC(=O)O[C@H]1C(=O)[C@]2(C)[C@@H](OC(=O)CCC(=O)O)C[C@H]3OC[C@@]3(OC(C)=O)[C@H]2[C@H](OCc2ccccc2)[C@]2(O)C[C@H](OC(=O)[C@H](OC(=O)CCC(=O)Oc3c(C)c(C)c4c(c3C)OC(C)(CCC[C@@H](C)CCC[C@@H](C)CCCC(C)C)CC4)[C@@H](NCc3ccccc3)c3ccccc3)C(C)=C1C2(C)C.CCN(CC)CC (stereo partly drawn)
[6]
  EC50: 0.2 µg/mL

## CC(=O)O[C@H]1C(=O)[C@@]2(C)[C@H]([C@H](OCc3ccccc3)[C@]3(O)C[C@H](OC(=O)[C@H](OC(=O)CCC(=O)Oc4c(C)c(C)c5c(c4C)OC(C)(C)CC5)[C@@H](NCc4ccccc4)c4ccccc4)C(C)=C1C3(C)C)[C@]1(OC(C)=O)CO[C@@H]1C[C@@H]2O
[1]
  EC50: 0.94 µg/mL (≈ 0.833 µM)
[2]
  EC50: 0.2 µg/mL (≈ 0.177 µM)

## COc1cccc(/C=C\C(C)=O)c1OC(=O)CCC(=O)O[C@@H](C(=O)O[C@H]1C[C@@]2(O)[C@@H](OCc3ccccc3)[C@@H]3[C@]4(OC(C)=O)CO[C@@H]4C[C@H](OC(=O)CN(C)C)[C@@]3(C)C(=O)[C@H](OC(C)=O)C(=C1C)C2(C)C)[C@@H](NCc1ccccc1)c1ccccc1
[1]
  EC50: 0.34 µg/mL (≈ 0.287 µM)
[2]
  EC50: 0.19 µg/mL (≈ 0.16 µM)

## CC(=O)O[C@H]1C(=O)[C@@]2(C)[C@H]([C@H](OCc3ccccc3)[C@]3(O)C[C@H](OC(=O)[C@H](OC(=O)CCC(=O)Oc4ccc5c(=O)c(O)c(-c6ccccc6)oc5c4)[C@@H](NCc4ccccc4)c4ccccc4)C(C)=C1C3(C)C)[C@]1(OC(C)=O)CO[C@@H]1C[C@@H]2O
[1]
  EC50: 0.26 µg/mL (≈ 0.224 µM)
[2]
  EC50: 0.13 µg/mL (≈ 0.112 µM)

## CCN(CC)CCC(=O)O[C@H]1C[C@H]2OC[C@@]2(OC(C)=O)[C@H]2[C@H](OCc3ccccc3)[C@]3(O)C[C@H](OC(=O)[C@H](OC(=O)CCC(=O)Oc4c(C)c(C)c5c(c4C)OC(C)(CCC[C@@H](C)CCC[C@@H](C)CCCC(C)C)CC5)[C@@H](NCc4ccccc4)c4ccccc4)C(C)=C([C@@H](OC(C)=O)C(=O)[C@]12C)C3(C)C (stereo in doubt; 27)
[1]
  Activity: inactive
[2]
  Activity: inactive
[6]
  Activity: inactive
[3]
  Activity: inactive
[4]
  Activity: inactive
[5]
  Activity: inactive

## CC(=O)O[C@H]1C(=O)[C@]2(C)[C@@H](OC(=O)CN(C)C)C[C@H]3OC[C@@]3(OC(C)=O)[C@H]2[C@H](OCc2ccccc2)[C@]2(O)C[C@H](OC(=O)[C@H](OC(=O)CCC(=O)Oc3c(C)c(C)c4c(c3C)OC(C)(CCC[C@@H](C)CCC[C@@H](C)CCCC(C)C)CC4)[C@@H](NCc3ccccc3)c3ccccc3)C(C)=C1C2(C)C (stereo partly drawn) [listing 2 of 2 here]
[6]
  EC50: 0.2 µg/mL (≈ 0.14 µM)

## CC(=O)O[C@H]1C(=O)[C@]2(C)[C@@H](OC(=O)CN(C)C)C[C@H]3OC[C@@]3(OC(C)=O)[C@H]2[C@H](OCc2ccccc2)[C@]2(O)C[C@H](OC(=O)[C@H](OC(=O)CCC(=O)Oc3c(C)c(C)c4c(c3C)OC(C)(C)CC4)[C@@H](NCc3ccccc3)c3ccccc3)C(C)=C1C2(C)C
[1]
  EC50: 9.79 µg/mL (≈ 8.07 µM)
[2]
  EC50: 1.01 µg/mL (≈ 0.832 µM)

## CC(=O)O[C@H]1C(=O)[C@]2(C)[C@@H](OC(=O)CCN3CCCCC3)C[C@H]3OC[C@@]3(OC(C)=O)[C@H]2[C@H](OCc2ccccc2)[C@]2(O)C[C@H](OC(=O)[C@H](OC(=O)CCC(=O)Oc3c(C)c(C)c4c(c3C)OC(C)(CCC[C@@H](C)CCC[C@@H](C)CCCC(C)C)CC4)[C@@H](NCc3ccccc3)c3ccccc3)C(C)=C1C2(C)C (stereo partly drawn)
[1]
  Activity: inactive
[2]
  Activity: inactive
[6]
  Activity: inactive
[3]
  Activity: inactive
[4]
  Activity: inactive
[5]
  Activity: inactive

## COc1cc(/C=C/C(=O)CC(=O)/C=C/c2ccc(O)c(OC)c2)ccc1O [CURCUMIN]
[1]
  Activity: inactive
[2]
  Activity: inactive
[6]
  EC50: 0.75 µg/mL (≈ 2.04 µM)
[3]
  Activity: inactive
[4]
  Activity: inactive
[5]
  Activity: inactive

## CC(=O)O[C@H]1C(=O)[C@@]2(C)[C@H]([C@H](OCc3ccccc3)[C@]3(O)C[C@H](OC(=O)[C@H](OC(=O)CCC(=O)Oc4ccc5c(C)cc(=O)oc5c4)[C@@H](NCc4ccccc4)c4ccccc4)C(C)=C1C3(C)C)[C@]1(OC(C)=O)CO[C@@H]1C[C@@H]2O
[1]
  EC50: 0.14 µg/mL (≈ 0.129 µM)
[2]
  EC50: 0.005 µg/mL (≈ 0.00461 µM)

## CC(=O)O[C@H]1C(=O)[C@]2(C)[C@@H](OC(=O)CN(C)C)C[C@H]3OC[C@@]3(OC(C)=O)[C@H]2[C@H](OCc2ccccc2)[C@]2(O)C[C@H](OC(=O)[C@H](OC(=O)CCC(=O)Oc3c(C)c(C)c4c(c3C)OC(C)(CCC[C@@H](C)CCC[C@@H](C)CCCC(C)C)CC4)[C@@H](NCc3ccccc3)c3ccccc3)C(C)=C1C2(C)C.CS(=O)(=O)O (stereo partly drawn)
[6]
  EC50: 0.1 µg/mL

## CC(=O)O[C@H]1C(=O)[C@]2(C)[C@@H](OC(=O)CCC(=O)O)C[C@H]3OC[C@@]3(OC(C)=O)[C@H]2[C@H](OCc2ccccc2)[C@]2(O)C[C@H](OC(=O)[C@H](OC(=O)CCC(=O)Oc3c(C)c(C)c4c(c3C)OC(C)(CCC[C@@H](C)CCC[C@@H](C)CCCC(C)C)CC4)[C@@H](NCc3ccccc3)c3ccccc3)C(C)=C1C2(C)C (stereo partly drawn) [listing 1 of 2 here]
[1]
  Activity: inactive
[2]
  Activity: inactive
[3]
  Activity: inactive
[4]
  Activity: inactive
[5]
  Activity: inactive

## VITAMIN E
[1]
  Activity: inactive
[2]
  Activity: inactive
[6]
  ED50: 0.75 µg/mL
[3]
  Activity: inactive
[4]
  Activity: inactive
[5]
  Activity: inactive

## CC(=O)O[C@H]1C(=O)[C@]2(C)[C@@H](OC(=O)CN(C)C)C[C@H]3OC[C@@]3(OC(C)=O)[C@H]2[C@H](OCc2ccccc2)[C@]2(O)C[C@H](OC(=O)[C@H](OC(=O)CCC(=O)Oc3ccc4c(=O)c(O)c(-c5ccccc5)oc4c3)[C@@H](NCc3ccccc3)c3ccccc3)C(C)=C1C2(C)C
[1]
  EC50: 0.09 µg/mL (≈ 0.0722 µM)
[2]
  EC50: 0.11 µg/mL (≈ 0.0882 µM)

## CC(=O)O[C@H]1C(=O)[C@@]2(C)[C@H]([C@H](OCc3ccccc3)[C@]3(O)C[C@H](OC(=O)[C@H](OC(=O)/C=C(C)/C=C/C=C(C)/C=C/C4=C(C)CCCC4(C)C)[C@@H](NCc4ccccc4)c4ccccc4)C(C)=C1C3(C)C)[C@]1(OC(C)=O)CO[C@@H]1C[C@@H]2O
[1]
  EC50: 0.2 µg/mL (≈ 0.18 µM)
[2]
  EC50: 0.49 µg/mL (≈ 0.442 µM)

## CCN(CC)CCC(=O)O[C@H]1C[C@H]2OC[C@@]2(OC(C)=O)[C@H]2[C@H](OCc3ccccc3)[C@]3(O)C[C@H](OC(=O)[C@H](OC(=O)CCC(=O)Oc4c(C)c(C)c5c(c4C)OC(C)(CCC[C@@H](C)CCC[C@@H](C)CCCC(C)C)CC5)[C@@H](NCc4ccccc4)c4ccccc4)C(C)=C([C@@H](OC(C)=O)C(=O)[C@]12C)C3(C)C (stereo in doubt; 27a)
[1]
  Activity: inactive
[2]
  Activity: inactive
[6]
  Activity: inactive
[3]
  Activity: inactive
[4]
  Activity: inactive
[5]
  Activity: inactive

## CC(=O)O[C@H]1C(=O)[C@@]2(C)[C@H]([C@H](OC(=O)c3ccccc3)[C@]3(O)C[C@H](OC(=O)[C@H](O)[C@@H](NC(=O)c4ccccc4)c4ccccc4)C(C)=C1C3(C)C)[C@]1(OC(C)=O)CO[C@@H]1C[C@@H]2O [PACLITAXEL]
[1]
  EC50: 0.002 µg/mL (≈ 0.00234 µM)
[2]
  EC50: 0.001 µg/mL (≈ 0.00117 µM)
[6]
  EC50: 0.01 µg/mL (≈ 0.0117 µM)
[3]; read-out: ED50 (the source's name)
  EC50: 0.06 µg/mL (≈ 0.0703 µM)
[4]
  EC50: 0.2 µg/mL (≈ 0.234 µM)
[5]
  EC50: 0.02 µg/mL (≈ 0.0234 µM)

## CC(=O)O[C@H]1C(=O)[C@]2(C)[C@@H](OC(=O)CCC(=O)O)C[C@H]3OC[C@@]3(OC(C)=O)[C@H]2[C@H](OCc2ccccc2)[C@]2(O)C[C@H](OC(=O)[C@H](OC(=O)CCC(=O)Oc3c(C)c(C)c4c(c3C)OC(C)(CCC[C@@H](C)CCC[C@@H](C)CCCC(C)C)CC4)[C@@H](NCc3ccccc3)c3ccccc3)C(C)=C1C2(C)C (stereo partly drawn) [listing 2 of 2 here]
[6]
  EC50: 0.1 µg/mL (≈ 0.0695 µM)

## CC(=O)O[C@H]1C(=O)[C@@]2(C)[C@H]([C@H](OCc3ccccc3)[C@]3(O)C[C@H](OC(=O)[C@H](OC(=O)CCC(=O)Oc4cc(O)c5c(=O)cc(-c6ccccc6)oc5c4)[C@@H](NCc4ccccc4)c4ccccc4)C(C)=C1C3(C)C)[C@]1(OC(C)=O)CO[C@@H]1C[C@@H]2O
[1]
  EC50: 0.47 µg/mL (≈ 0.404 µM)
[2]
  EC50: 0.2 µg/mL (≈ 0.172 µM)

## COc1cc(/C=C/C(C)=O)ccc1OC(=O)CCC(=O)O[C@@H](C(=O)O[C@H]1C[C@@]2(O)[C@@H](OCc3ccccc3)[C@@H]3[C@]4(OC(C)=O)CO[C@@H]4C[C@H](O)[C@@]3(C)C(=O)[C@H](OC(C)=O)C(=C1C)C2(C)C)[C@@H](NCc1ccccc1)c1ccccc1
[1]
  EC50: 0.005 µg/mL (≈ 0.00454 µM)
[2]
  EC50: 0.005 µg/mL (≈ 0.00454 µM)

## CC(=O)O[C@H]1C(=O)[C@]2(C)[C@@H](OC(=O)CN(C)C)C[C@H]3OC[C@@]3(OC(C)=O)[C@H]2[C@H](OCc2ccccc2)[C@]2(O)C[C@H](OC(=O)[C@H](OC(=O)/C=C(C)/C=C/C=C(C)/C=C/C3=C(C)CCCC3(C)C)[C@@H](NCc3ccccc3)c3ccccc3)C(C)=C1C2(C)C
[1]
  EC50: 7.65 µg/mL (≈ 6.41 µM)
[2]
  EC50: 4.47 µg/mL (≈ 3.75 µM)

## COc1cc(/C=C/C(C)=O)ccc1OC(=O)CCC(=O)O[C@@H](C(=O)O[C@H]1C[C@@]2(O)[C@@H](OCc3ccccc3)[C@@H]3[C@]4(OC(C)=O)CO[C@@H]4C[C@H](OC(=O)CN(C)C)[C@@]3(C)C(=O)[C@H](OC(C)=O)C(=C1C)C2(C)C)[C@@H](NCc1ccccc1)c1ccccc1
[1]
  EC50: 0.7 µg/mL (≈ 0.591 µM)
[2]
  EC50: 0.63 µg/mL (≈ 0.531 µM)
